Assay results: patent US20020085997A1, “TUMOUR VACCINE AND PROCESS FOR THE PREPARATION THEREOF” (priority 1995, published 2002)

Tests used:
M-3 cells = test: Comparative FACS analysis of M-3 cells treated with FITC-labelled foreign peptide by various methods; assay type: cell-based, murine
M-3 melanoma metastases = test: Curing of DBA/2 mice having M-3 melanoma metastases with vaccine of foreign peptide-charged melanoma cells (therapeutic mouse model); assay type: in vivo
CT-26 cells = test: Protection of Balb/c mice by pre-immunisation with vaccine of foreign peptide-charged CT-26 colon carcinoma cells (prophylactic mouse model); assay type: in vivo; conditions: for animals protected: vaccinated twice s.c. 10^5 cells/mouse
[1] = system: highly tumorigenic variant of the M-3 cells; assay type: in vivo, mice; conditions: cells charged with peptide by means of TfpL/DNA complexes

| Sequence | peptide binding to cells after washing step (M-3 cells; adjuvant mixing: 100 μg FITC-labelled peptide, 30 minutes ambient temperature, 10^6 M-3 cells) | detection of cell-bound FITC peptide by fluorescent microscopy (M-3 cells; pulsing, cytocentrifuged M-3 cells) | shift in fluorescence (M-3 cells; pulsing: incubation with 450 μg FITC peptide, 3 hours 37° C., M-3 cells) | shift in fluorescence compared with untreated cells or cells treated with polylysine alone (M-3 cells; transloading: 160 μg FITC-labelled peptide with TfpL/pL/DNA complex, 3 hours 37° C., M-3 cells) | animals cured (M-3 melanoma metastases; 160 μg peptide charged onto M-3 cells by TfpL/DNA complexes, 5 day metastasis, 10^5 irradiated cells/animal s.c. twice) | degree of systemic immune response of the tumour vaccine (M-3 melanoma metastases; adjuvant mixing of the peptide with the irradiated vaccines) | animals cured (M-3 melanoma metastases; complexes containing 0.5 μg of peptide, five-day metastasis) | mice cured (M-3 melanoma metastases; complexes containing 5 μg of peptide, five-day metastasis) | mice cured (M-3 melanoma metastases; complexes containing 50 μg of peptide, five-day metastasis) | mice able to eliminate the metastases (M-3 melanoma metastases; mice with metastases vaccinated with xenopeptised irradiated M-3 cells (TfpL and empty vector)) [%] | degree of systemic immune response of the tumour vaccine (M-3 melanoma metastases; peptide administered to the cells by polylysine/transferrin, compared with incubation with peptide for 24 hours (pulsing)) | animals cured (M-3 melanoma metastases; vaccine of cells treated with 4 mg peptide by incubation (pulsing, 3 hours 37° C.)) | animals remained free from tumours (M-3 melanoma metastases; vaccine with 400 μg peptide applied by incubation (pulsing, 3 hours 37° C.)) | vaccinated mice able to eliminate a tumour challenge (CT-26 cells; irradiated CT-26 vaccine alienised with peptide complexed with TfpL or pL) [%] | animals protected (CT-26 cells) | suitability of the peptide for producing an anti-tumour immunity (CT-26 cells; murine colon carcinoma CT-26, Balb/c) | animals developed tumours [1] |
| --- | --- | --- | --- | --- | --- | --- | --- | --- | --- | --- | --- | --- | --- | --- | --- | --- | --- |
| LFEAIEGFI [Leu Phe Glu Ala Ile Glu Gly Phe Ile, viral peptide derived from the influenza virus haemagglutinin, H2-K^d-ligand, used as foreign peptide to charge tumour cells] | at most negligible | practically undetectable | one power of ten | ~2 powers of ten | 7 out of 8 | inefficient | 2 out of 8 | 4 out of 8 | 6 out of 8 | 87.5 | significantly more marked | 1 out of 8 | 3 out of the 8 | 75 | 6 out of 8 |  |  |
| FFIGALEEI [Phe Phe Ile Gly Ala Leu Glu Glu Ile, synthetic peptide not hitherto found in nature, designed as ligand for MHC-I molecule of type H2-Kd] |  |  |  |  |  |  |  |  |  |  |  |  |  |  | 4 out of 8 | confirmed |  |
| LPEAIEGFG [Leu Pro Glu Ala Ile Glu Gly Phe Gly, control peptide, anchor amino acids at positions 2 and 9 replaced by proline and glycine, reference compound] |  |  |  |  |  |  |  |  |  |  |  |  |  |  |  |  | 7 out of 8 |
